Laboratory results taken from US20260265238A1, “COMPOUNDS AND PHARMACEUTICAL COMPOSITIONS THAT DEGRADE SWI/SNF-RELATED MATRIX-ASSOCIATED ACTIN-DEPENDENT REGULATOR OF CHROMATIN SUBFAMILY A” (Plexium, Inc., priority 2023, published 2026).

Assays:
[1] = molecular target: T1, SMARCA2-HiBiT HeLa cells (protein which is expressed from the SMARCA2 gene) (Homo sapiens, UniProt P51531); assay: SMARCA2 degradation assay (HiBiT-fusion HeLa cell line, 24 h, luminescence); assay type: cell-based
T1 construct: protein which is expressed from the SMARCA2 and SMARCA4 genes; host or cells: HeLa (SMARCA2-HiBiT engineered line)
Procedure, shortened: (§1)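 SMARCA2- or SMARCA4-HiBiT HeLa cells seeded overnight at 37° C, then given compound as a 10-point dilution (typically 10 μM to 300 pM) for 24 h at 37° C. Protein level read by HiBiT lytic detection luminescence; DC50 from dose-response curves; degradation also scored at 1 μM.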

[2] = molecular target: T2, SMARCA4-HiBiT HeLa cells (protein which is expressed from the SMARCA4 gene) (Homo sapiens, UniProt P51532); assay: SMARCA4 degradation assay (HiBiT-fusion HeLa cell line, 24 h, luminescence); assay type: cell-based
T2 construct: protein which is expressed from the SMARCA2 and SMARCA4 genes; host or cells: HeLa (SMARCA4-HiBiT engineered line)
Procedure, shortened: as §1

T1 sequence (P51531 whole entry, the tested form may be a part): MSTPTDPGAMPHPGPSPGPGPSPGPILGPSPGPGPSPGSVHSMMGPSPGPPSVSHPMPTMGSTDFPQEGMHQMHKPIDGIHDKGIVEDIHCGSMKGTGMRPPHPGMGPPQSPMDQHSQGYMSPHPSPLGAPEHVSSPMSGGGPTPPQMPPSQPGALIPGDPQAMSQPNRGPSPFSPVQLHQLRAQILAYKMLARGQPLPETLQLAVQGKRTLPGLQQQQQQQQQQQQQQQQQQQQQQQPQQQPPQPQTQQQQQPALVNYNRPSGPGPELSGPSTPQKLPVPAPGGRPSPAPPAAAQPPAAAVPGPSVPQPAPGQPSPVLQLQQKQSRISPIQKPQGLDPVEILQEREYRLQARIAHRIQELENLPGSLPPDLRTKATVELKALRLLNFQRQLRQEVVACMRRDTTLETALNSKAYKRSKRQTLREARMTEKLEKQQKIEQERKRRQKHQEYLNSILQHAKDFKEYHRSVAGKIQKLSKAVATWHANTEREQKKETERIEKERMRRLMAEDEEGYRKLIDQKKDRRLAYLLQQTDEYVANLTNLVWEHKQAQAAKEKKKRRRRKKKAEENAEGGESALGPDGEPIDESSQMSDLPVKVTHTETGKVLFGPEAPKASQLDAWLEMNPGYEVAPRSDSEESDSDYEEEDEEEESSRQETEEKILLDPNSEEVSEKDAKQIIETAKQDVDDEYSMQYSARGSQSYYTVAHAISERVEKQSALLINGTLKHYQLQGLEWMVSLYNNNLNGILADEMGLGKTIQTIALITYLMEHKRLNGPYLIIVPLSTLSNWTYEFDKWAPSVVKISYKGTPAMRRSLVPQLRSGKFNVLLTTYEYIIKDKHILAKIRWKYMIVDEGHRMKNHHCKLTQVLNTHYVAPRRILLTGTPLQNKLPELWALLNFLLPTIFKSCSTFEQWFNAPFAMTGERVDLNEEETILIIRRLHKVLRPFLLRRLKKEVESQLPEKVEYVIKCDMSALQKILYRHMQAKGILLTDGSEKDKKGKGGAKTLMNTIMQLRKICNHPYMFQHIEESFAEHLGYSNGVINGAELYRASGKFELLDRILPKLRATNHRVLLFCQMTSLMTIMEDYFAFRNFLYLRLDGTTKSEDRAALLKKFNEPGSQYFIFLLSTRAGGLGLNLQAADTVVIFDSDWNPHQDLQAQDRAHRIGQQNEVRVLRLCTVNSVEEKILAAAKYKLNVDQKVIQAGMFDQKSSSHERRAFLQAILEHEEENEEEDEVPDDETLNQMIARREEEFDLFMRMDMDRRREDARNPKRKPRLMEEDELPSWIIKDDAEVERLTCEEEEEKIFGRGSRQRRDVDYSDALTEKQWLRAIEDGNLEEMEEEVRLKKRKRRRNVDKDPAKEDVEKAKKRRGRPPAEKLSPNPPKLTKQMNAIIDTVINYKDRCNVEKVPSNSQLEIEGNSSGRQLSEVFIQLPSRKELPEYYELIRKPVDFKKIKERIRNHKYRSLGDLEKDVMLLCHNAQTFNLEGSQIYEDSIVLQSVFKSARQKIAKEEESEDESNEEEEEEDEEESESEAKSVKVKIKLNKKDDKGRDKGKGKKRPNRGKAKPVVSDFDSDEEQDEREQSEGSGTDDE
T2 sequence (P51532 whole entry, the tested form may be a part): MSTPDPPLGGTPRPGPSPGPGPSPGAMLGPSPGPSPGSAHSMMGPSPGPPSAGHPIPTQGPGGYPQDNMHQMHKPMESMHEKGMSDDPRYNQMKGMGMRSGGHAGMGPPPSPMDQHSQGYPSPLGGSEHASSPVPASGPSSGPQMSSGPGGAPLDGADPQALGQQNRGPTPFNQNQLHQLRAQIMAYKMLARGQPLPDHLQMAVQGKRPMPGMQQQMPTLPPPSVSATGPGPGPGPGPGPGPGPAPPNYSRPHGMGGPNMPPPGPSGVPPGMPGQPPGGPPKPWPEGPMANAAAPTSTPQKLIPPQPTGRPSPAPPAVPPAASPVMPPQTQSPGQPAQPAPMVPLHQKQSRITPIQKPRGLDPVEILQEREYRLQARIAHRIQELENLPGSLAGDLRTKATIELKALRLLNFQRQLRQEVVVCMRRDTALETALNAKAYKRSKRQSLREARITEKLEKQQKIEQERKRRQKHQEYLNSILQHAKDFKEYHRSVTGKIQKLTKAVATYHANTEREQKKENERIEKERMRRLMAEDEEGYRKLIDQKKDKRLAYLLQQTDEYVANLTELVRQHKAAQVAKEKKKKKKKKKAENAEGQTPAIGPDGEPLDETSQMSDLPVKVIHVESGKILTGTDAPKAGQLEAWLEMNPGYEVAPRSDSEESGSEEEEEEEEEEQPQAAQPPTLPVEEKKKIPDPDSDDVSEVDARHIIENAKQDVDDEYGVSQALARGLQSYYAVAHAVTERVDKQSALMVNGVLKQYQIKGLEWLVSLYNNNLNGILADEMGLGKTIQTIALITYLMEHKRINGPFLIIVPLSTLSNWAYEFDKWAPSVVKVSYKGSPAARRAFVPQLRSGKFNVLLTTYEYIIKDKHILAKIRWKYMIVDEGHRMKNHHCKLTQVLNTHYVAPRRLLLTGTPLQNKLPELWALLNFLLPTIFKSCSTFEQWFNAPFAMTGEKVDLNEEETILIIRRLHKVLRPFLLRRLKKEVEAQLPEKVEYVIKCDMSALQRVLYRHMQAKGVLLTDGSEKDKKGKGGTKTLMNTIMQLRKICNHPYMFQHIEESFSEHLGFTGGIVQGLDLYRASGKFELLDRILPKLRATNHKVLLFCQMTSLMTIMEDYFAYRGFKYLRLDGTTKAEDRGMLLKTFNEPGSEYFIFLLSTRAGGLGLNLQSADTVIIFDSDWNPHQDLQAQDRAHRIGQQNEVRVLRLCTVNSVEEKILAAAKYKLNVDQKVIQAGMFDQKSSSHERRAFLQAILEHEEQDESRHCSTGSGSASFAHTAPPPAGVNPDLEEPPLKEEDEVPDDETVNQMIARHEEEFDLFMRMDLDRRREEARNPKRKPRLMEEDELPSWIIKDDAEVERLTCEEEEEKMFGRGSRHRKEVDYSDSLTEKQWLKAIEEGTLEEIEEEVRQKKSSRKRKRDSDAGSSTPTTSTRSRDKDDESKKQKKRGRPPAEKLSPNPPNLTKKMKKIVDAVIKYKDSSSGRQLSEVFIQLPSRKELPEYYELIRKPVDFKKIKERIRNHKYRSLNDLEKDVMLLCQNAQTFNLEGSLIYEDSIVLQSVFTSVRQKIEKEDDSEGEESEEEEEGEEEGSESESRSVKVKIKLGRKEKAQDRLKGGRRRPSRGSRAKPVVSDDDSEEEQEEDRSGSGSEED

SMILES | DC50 [1] | SMARCA2 % Degradation @ 1 μM [1] | DC50 [2] | inhibition at 1 µM [2]
C[C@@H](O)C#Cc1nccc(N2CCCN(c3cc(-c4ccccc4O)nnc3N)CC2)n1 [Compound P-322, 0-[5-(4-{2-[(R)-3-hydroxy-1-butynyl]-4-pyrimidinyl}-1,4-diazepan-1-yl)-6-amino-3-pyridazinyl]phenol] | 50 to 500 nM | ++ (++=30-70%) | 50 to 500 nM | 30 to 70%
CSCC#Cc1nccc(N2CCCN(c3cc(-c4ccccc4O)nnc3N)CC2)n1 [Compound P-323, 0-[6-amino-5-(4-{2-[3-(methylthio)-1-propynyl]-4-pyrimidinyl}-1,4-diazepan-1-yl)-3-pyridazinyl]phenol] | 50 to 500 nM | ++ (++=30-70%) | 50 to 500 nM | 30 to 70%
Nc1nnc(-c2ccccc2O)cc1N1CCCN(c2ccnc(C#CCNC(=O)NC3CCC3)n2)CC1 [Compound P-325, 0-[6-amino-5-(4-{2-[3-(3-cyclobutylureido)-1-propynyl]-4-pyrimidinyl}-1,4-diazepan-1-yl)-3-pyridazinyl]phenol] | 500 to 5000 nM | ++ (++=30-70%) | 50 to 500 nM | 30 to 70%
CCNC(=O)NCC#Cc1nccc(N2CCCN(c3cc(-c4ccccc4O)nnc3N)CC2)n1 [Compound P-326, 0-[6-amino-5-(4-{2-[3-(3-ethylureido)-1-propynyl]-4-pyrimidinyl}-1,4-diazepan-1-yl)-3-pyridazinyl]phenol] | 500 to 5000 nM | ++ (++=30-70%) | 500 to 5000 nM | < 30%
CC(C)NC(=O)NCC#Cc1nccc(N2CCCN(c3cc(-c4ccccc4O)nnc3N)CC2)n1 [Compound P-327, 0-[6-amino-5-(4-{2-[3-(3-isopropylureido)-1-propynyl]-4-pyrimidinyl}-1,4-diazepan-1-yl)-3-pyridazinyl]phenol] | 500 to 5000 nM | ++ (++=30-70%) | 500 to 5000 nM | 30 to 70%
C[C@@H]1CCN(c2cc(-c3ccccc3O)nnc2N)CCN1c1ccnc(C#CCNc2ccn(C)n2)n1 [Compound P-331, 0-{5-[(R)-5-methyl-4-{2-[3-(1-methyl-3-pyrazolylamino)-1-propynyl]-4-pyrimidinyl}-1,4-diazepan-1-yl]-6-amino-3-pyridazinyl}phenol] | 50 to 500 nM | ++ (++=30-70%) | 50 to 500 nM | < 30%
Cc1nn2ccn(CC#Cc3nccc(N4CCN(c5cc(-c6ccccc6O)nnc5N)CC[C@H]4C)n3)c(=O)c2c1C [Compound P-336, 5-[3-(4-{ (R)-4-[3-amino-6-(o-hydroxyphenyl)-4-pyridazinyl]-7-methyl-1,4-diazepan-1-yl}-2-pyrimidinyl)-2-propynyl]-2,3-dimethyl-1,5,7a-triaza-4(5H)-indenone] | 50 to 500 nM | ++ (++=30-70%) | 50 to 500 nM | < 30%
Nc1nnc(-c2ccccc2O)cc1N1CCCN(c2ccnc(C#CCN3C4CCC3CC(O)C4)n2)CC1 (centres unmarked) [Compound P-338, 8-[3-(4-{4-[3-amino-6-(o-hydroxyphenyl)-4-pyridazinyl]-1,4-diazepan-1-yl}-2-pyrimidinyl)-2-propynyl]-8-azabicyclo[3.2.1]octan-3-ol] | 50 to 500 nM | ++ (++=30-70%) | 50 to 500 nM | < 30%
Nc1nnc(-c2ccccc2O)cc1N1CCCN(c2ccnc(C#CCNC(=O)OCC(F)(F)F)n2)CC1 [Compound P-339, 6-(o-hydroxyphenyl)-4-(4-{2-[3-(2,2,2-trifluoroethoxycarbonylamino)-1-propynyl]-4-pyrimidinyl}-1,4-diazepan-1-yl)-3-pyridazinamine] | 50 to 500 nM | +++ (+++=>70%) | 50 to 500 nM | > 70%
CC(C)(O)C#Cc1nccc(N2CCCN(c3cc(-c4ccccc4O)nnc3N)CC2)n1 [Compound P-341, 4-(4-{4-[3-amino-6-(0-hydroxyphenyl)-4-pyridaziny1]-1,4-diazepan-1-yl}-2-pyrimidinyl)-2-methyl-3-butyn-2-ol] | 500 to 5000 nM | ++ (++=30-70%) | 500 to 5000 nM | < 30%
COCC#Cc1nccc(N2CCCN(c3cc(-c4ccccc4O)nnc3N)CC2)n1 [Compound P-342, 0-(6-amino-5-{4-[2-(3-mcthoxy-1-propynyl)-4-pyrimidinyl]-1,4-diazepan-1-yl}-3-pyridazinyl)phenol] | 50 to 500 nM | ++ (++=30-70%) | 50 to 500 nM | 30 to 70%
C[C@H]1CN(c2cc(-c3ccccc3O)nnc2N)[C@@H](C)CN1c1ccnc(C#CCNC(=O)c2cc3ncccn3n2)n1 [Compound P-343, N-[3-(4-{(2S,5S)-4-[3-amino-6-(0-hydroxyphenyl)-4-pyridaziny1]-2,5-dimethyl-1-piperazinyl}-2-pyrimidinyl)-2-propynyl]-1,4,7a-triaza-2-indenecarboxamide] | 50 to 500 nM | ++ (++=30-70%) | 50 to 500 nM | 30 to 70%

Further lines, results first:

DC50 [1] | SMARCA2 % Degradation @ 1 μM [1] | DC50 [2] | inhibition at 1 µM [2] | SMILES
50 to 500 nM | ++ (++=30-70%) | 50 to 500 nM | 30 to 70% | C[C@H](O)C#Cc1nccc(N2CCCN(c3cc(-c4ccccc4O)nnc3N)CC2)n1 [Compound P-321, 0-[5-(4-{2-[(S)-3-hydroxy-1-butynyl]-4-pyrimidinyl}-1,4-diazepan-1-yl)-6-amino-3-pyridazinyl]phenol]
500 to 5000 nM | ++ (++=30-70%) | 500 to 5000 nM | < 30% | Nc1nnc(-c2ccccc2O)cc1N1CCCN(c2ccnc(C#CCNC(=O)NC3CC3)n2)CC1 [Compound P-324, 0-[6-amino-5-(4-{2-[3-(3-cyclopropylureido)-1-propynyl]-4-pyrimidinyl}-1,4-diazepan-1-yl)-3-pyridazinyl]phenol]
50 to 500 nM | ++ (++=30-70%) | 50 to 500 nM | 30 to 70% | C[C@H]1CN(c2ccnc(C#CCNc3ccn(C)n3)n2)CCN1c1cc(-c2ccccc2O)nnc1N [Compound P-328, 0-{5-[(S)-2-methyl-4-{2-[3-(1-methyl-3-pyrazolylamino)-1-propynyl]-4-pyrimidinyl}-1-piperazinyl]-6-amino-3-pyridazinyl}phenol]
50 to 500 nM | ++ (++=30-70%) | 50 to 500 nM | < 30% | C[C@H]1CN(c2ccnc(C#CCn3cccn3)n2)CCN1c1cc(-c2ccccc2O)nnc1N [Compound P-329, 0-{5-[(S)-2-methyl-4-{2-[3-(1-pyrazolyl)-1-propynyl]-4-pyrimidinyl}-1-piperazinyl]-6-amino-3-pyridazinyl} phenol]
50 to 500 nM | ++ (++=30-70%) | 50 to 500 nM | < 30% | C[C@H]1CN(c2ccnc(C#CCn3cncn3)n2)CCN1c1cc(-c2ccccc2O)nnc1N [Compound P-330, 0-{5-[(S)-2-methyl-4-{2-[3-(1H-1,2,4-triazol-1-yl)-1-propynyl]-4-pyrimidinyl}-1-piperazinyl]-6-amino-3-pyridazinyl} phenol]
< 50 nM | ++ (++=30-70%) | 50 to 500 nM | < 30% | C[C@@H]1CCN(c2cc(-c3ccccc3O)nnc2N)CCN1c1ccnc(C#CCn2cccn2)n1 [Compound P-332, 0-{5-[(R)-5-methyl-4-{2-[3-(1-pyrazolyl)-1-propynyl]-4-pyrimidinyl}-1,4-diazepan-1-y1]-6-amino-3-pyridazinyl}phenol]
50 to 500 nM | ++ (++=30-70%) | 50 to 500 nM | < 30% | C[C@@H]1CCN(c2cc(-c3ccccc3O)nnc2N)CCN1c1ccnc(C#CCn2cncn2)n1 [Compound P-333, 0-{5-[(R)-5-methyl-4-{2-[3-(1H-1,2,4-triazol-1-yl)-1-propynyl]-4-pyrimidinyl}-1,4-diazepan-1-y1]-6-amino-3-pyridazinyl} phenol]
50 to 500 nM | ++ (++=30-70%) | 50 to 500 nM | < 30% | C[C@@H]1CCN(c2cc(-c3ccccc3O)nnc2N)CCN1c1ccnc(C#CCN2CCOCC2)n1 [Compound P-334, 0-(5-{(R)-5-methyl-4-[2-(3-morpholino-1-propynyl)-4-pyrimidinyl]-1,4-diazepan-1-yl}-6-amino-3-pyridazinyl)phenol]
< 50 nM | ++ (++=30-70%) | < 50 nM | 30 to 70% | C[C@@H]1CCN(c2cc(-c3ccccc3O)nnc2N)CCN1c1ccnc(C#CCN2CCCCC2)n1 [Compound P-335, 0-(5-{(R)-5-methyl-4-[2-(3-piperidino-1-propynyl)-4-pyrimidinyl]-1,4-diazepan-1-y1}-6-amino-3-pyridazinyl)phenol]
50 to 500 nM | +++ (+++=>70%) | 50 to 500 nM | > 70% | Nc1nnc(-c2ccccc2O)cc1N1CCCN(c2ccnc(C#CCN3CCC(Cc4ccccc4)CC3)n2)CC1 [Compound P-337, 0-[6-amino-5-(4-{2-[3-(4-benzyl-1-piperidyl)-1-propynyl]-4-pyrimidinyl}-1,4-diazepan-1-yl)-3-pyridazinyl]phenol]
50 to 500 nM | ++ (++=30-70%) | 50 to 500 nM | 30 to 70% | Nc1nnc(-c2ccccc2O)cc1N1CCCN(c2ccnc(C#CC3CCOC3)n2)CC1 (centres unmarked) [Compound P-340, 0-[6-amino-5-(4-{2-[2-(tetrahydro-3-furyl)ethynyl]-4-pyrimidinyl}-1,4-diazepan-1-yl)-3-pyridazinyl]phenol]
